Experimental data taken from ChEMBL document CHEMBL4811301, “Synthesis and biological evaluation of 3-styrylchromone derivatives as selective monoamine oxidase B inhibitors” (Bioorg Med Chem, 2021).

What was measured:
[1] = target: T1, Amine oxidase [flavin-containing] A (Homo sapiens, UniProt P21397); test: Inhibition of human recombinant MAO-A […] as incubated for 20 mins measuring increase in emission signal at 310 nm multimode plate reader assay
T1 sequence (P21397 whole entry): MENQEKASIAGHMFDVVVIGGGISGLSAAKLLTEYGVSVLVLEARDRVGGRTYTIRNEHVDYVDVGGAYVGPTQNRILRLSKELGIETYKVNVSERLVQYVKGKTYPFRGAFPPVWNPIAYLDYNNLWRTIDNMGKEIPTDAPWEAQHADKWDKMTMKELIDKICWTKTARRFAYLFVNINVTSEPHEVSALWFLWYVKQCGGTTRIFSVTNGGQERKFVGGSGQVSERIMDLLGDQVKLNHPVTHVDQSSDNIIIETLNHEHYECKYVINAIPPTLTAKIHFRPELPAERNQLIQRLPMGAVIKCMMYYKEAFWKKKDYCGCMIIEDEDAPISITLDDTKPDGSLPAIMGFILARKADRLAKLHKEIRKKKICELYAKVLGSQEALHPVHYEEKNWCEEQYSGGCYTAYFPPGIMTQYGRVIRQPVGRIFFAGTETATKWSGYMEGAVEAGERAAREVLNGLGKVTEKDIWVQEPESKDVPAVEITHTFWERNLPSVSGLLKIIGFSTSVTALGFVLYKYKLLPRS

Homo sapiens = species: Homo sapiens; test: Selectivity index, ratio of IC50 for recombinant human MAO-A to IC50 for recombinant human MAO-B
[2] = target: T2, Amine oxidase [flavin-containing] B (Homo sapiens, UniProt P27338); test: Inhibition of human recombinant MAO-B using kynuramine as substrate incubated for 20 mins measuring increase in emission signal at 400 nm multimode plate reader assay
T2 sequence (P27338 whole entry): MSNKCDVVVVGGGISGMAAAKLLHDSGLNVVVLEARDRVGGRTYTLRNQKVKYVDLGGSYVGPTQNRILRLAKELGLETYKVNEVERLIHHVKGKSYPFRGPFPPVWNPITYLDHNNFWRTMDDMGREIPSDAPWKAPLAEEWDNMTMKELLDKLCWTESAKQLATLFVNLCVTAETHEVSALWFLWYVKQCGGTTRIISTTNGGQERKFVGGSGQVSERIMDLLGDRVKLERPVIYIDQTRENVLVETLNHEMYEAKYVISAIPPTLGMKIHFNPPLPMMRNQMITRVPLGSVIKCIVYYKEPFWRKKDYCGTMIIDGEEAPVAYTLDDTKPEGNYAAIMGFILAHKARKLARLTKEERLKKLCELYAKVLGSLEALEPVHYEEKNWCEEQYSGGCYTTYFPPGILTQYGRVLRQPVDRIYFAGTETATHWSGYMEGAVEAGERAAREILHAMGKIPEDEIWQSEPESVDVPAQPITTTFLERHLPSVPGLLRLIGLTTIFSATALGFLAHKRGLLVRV

[3] = target: T2, Amine oxidase [flavin-containing] B; test: Mixed type inhibition of human recombinant MAO-B by Lineweaver-Burk plot analysis

Row | Compound | IC50 [1] [nM] | Selectivity Index (Homo sapiens) | IC50 [2] [nM] | Ki [3] [nM]
1 | COc1cc(/C=C/c2coc3ccccc3c2=O)cc(OC)c1OC | 67000 | 291 | 230 | 
2 | COc1ccc2c(=O)c(/C=C/c3ccccc3)coc2c1 | 120 | 8 | 16 | 
3 | COc1ccc2occ(/C=C/c3ccc(O)cc3)c(=O)c2c1 | 8700 |  | 330 | 
4 | COc1ccc2c(=O)c(/C=C/c3ccc(O)cc3)coc2c1 | 22 |  | 47 | 
5 | COc1ccc(/C=C/c2coc3ccccc3c2=O)cc1OC | 33000 | 206 | 160 | 
6 | CN(C)c1ccc(/C=C/c2coc3ccccc3c2=O)cc1 | 42000 | 875 | 48 | 
7 | COc1ccc2c(=O)c(/C=C/c3ccc(OC)c(OC)c3)coc2c1 | 19000 | 576 | 33 | 
8 | O=c1c(/C=C/c2ccc(F)cc2)coc2ccccc12 | 620 | 72 | 8.6 | 
9 | COc1ccc2occ(/C=C/c3cc(OC)c(OC)c(OC)c3)c(=O)c2c1 | > 100000 | > 40 | 2500 | 
10 | COc1ccc2c(=O)c(/C=C/c3ccc(N(C)C)cc3)coc2c1 | 490 | 80 | 6.1 | 
11 | COc1ccc2occ(/C=C/c3ccc(Cl)cc3)c(=O)c2c1 | 4100 | 146 | 28 | 
12 | COc1ccc2occ(/C=C/c3ccc(OC)c(OC)c3)c(=O)c2c1 | 61000 | 76 | 800 | 
13 | COc1ccc(/C=C/c2coc3cc(OC)ccc3c2=O)cc1 | 69 | 10 | 6.8 | 
14 | O=c1c(/C=C/c2ccccc2)coc2ccccc12 | > 100000 | > 3700 | 27 | 18
15 | COc1ccc(/C=C/c2coc3ccccc3c2=O)cc1 | > 100000 | > 3400 | 29 | 
16 | COc1ccc2occ(/C=C/c3ccc(N(C)C)cc3)c(=O)c2c1 | 59000 | 257 | 230 | 

Continued by falling IC50 [1], values first:

Row | IC50 [1] [nM] | Selectivity Index (Homo sapiens) | IC50 [2] [nM] | Ki [3] [nM] | Compound
17 | 35000 | 233 | 150 |  | COc1ccc(/C=C/c2coc3ccc(OC)cc3c2=O)cc1
18 | 7300 | 348 | 21 |  | COc1ccc2c(=O)c(/C=C/c3cc(OC)c(OC)c(OC)c3)coc2c1
19 | 2600 | 70 | 37 |  | O=c1c(/C=C/c2ccc(O)cc2)coc2ccccc12
20 | 2500 | 33 | 75 |  | COc1ccc2occ(/C=C/c3ccccc3)c(=O)c2c1
21 | 390 | 66 | 5.9 |  | O=c1c(/C=C/c2ccc(Cl)cc2)coc2ccccc12
22 | 380 | 11 | 34 |  | COc1ccc2occ(/C=C/c3ccc(F)cc3)c(=O)c2c1
23 | 25 | 11 | 2.2 | 1.5 | COc1ccc2c(=O)c(/C=C/c3ccc(Cl)cc3)coc2c1
24 | 14 |  | 3.1 |  | COc1ccc2c(=O)c(/C=C/c3ccc(F)cc3)coc2c1
